Experiment [1] concerns autistic children. The experiment can be described thus: Fecal Chymotrypsin Test after secretin infusion in autistic children (Experiments 1 and 2). The format is in vivo, human. To be noted: 6 Months Post-Secretin Administration. As for the experimental part: In this experiment, 16 children diagnosed as having autism were administered the following Fecal Chymotrypsin Test in accordance with an embodiment of the invention. First, approximately 2 grams of stool were collected from each child and placed in a sterile container (although it is to be understood that any quantity of stool may be collected, as 2 grams of stool is not a required amount). Each stool sample was then analyzed using, e.g., an enzymatic photospectrometry analysis as is known by those skilled in the art, to determine the level of fecal chymotrypsin in the stool. Although the enzymatic photospectrophotometry process is preferred, any suitable conventional method may be used for measuring the fecal chymotrypsin levels. The measured chymotrypsin levels of the 16 autistic children are illustrated in FIG. 13.
After determining the chymotrypsin levels of the stools, each of these levels were compared with threshold chymotrypsin levels to determine if the child was likely to benefit from secretin administration. By way of example, with the fecal chymotrypsin tests of the stool samples being performed at 30° C., normal levels of chymotrypsin are deemed to lie above 8.4 U/gram, whereas pathologically abnormal levels are deemed to lie below 4.2 U/gram. In addition, chymotrypsin levels between 8.4 U/gram and 4.2 U/gram are considered equivocal, and further testing of the individual's fecal chymotrypsin levels over a period of time should be performed. […]
The results of Experiment 1 are illustrated in FIGS. 1-14. For instance, approximately one week after the first secretin infusion, the fecal chymotrypsin level of each of the 16 autistic children was measured again. […]
In this experiment, 37 autistic children with abnormal fecal chymotrypsin levels were administered secretin over the course of 6 months using the secretin infusion process described above. Their fecal chymotrypsin (FC) levels were measured weekly using the fecal chymotrypsin test described above.

In experiment [2] the test system is children diagnosed with Autism. To be noted: secretin given as diagnostic procedure during upper gastrointestinal endoscopy; Horvath et al. 1998; cited from earlier work.
Experiment [3] deals with autistic children. The experiment can be described thus: CARS (Childhood Autism Rating Scale) test pre- and post-secretin administration (Experiment 1). Format: in vivo, human. To be noted: 16 autistic children; 3 weeks post infusion vs pre-secretin. As for the experimental part:
Upon determining that a given child was likely to benefit from secretin administration based on the results of the fecal chymotrypsin test, the child was administered a CARS (Childhood Autism Rating Scale) test prior to being scheduled for secretin infusion.
For each of the 16 autistic children tested, a preferred secretin infusion process according to the present invention was performed involving the administering of 1 U/kg of body weight of Secretin-Ferring for a period of nine months at intervals of approximately 6 weeks. In addition, another CARS test was administered to each of the 16 autistic children 3 weeks post secretin administration to determine if their autism had changed post infusion.
A preferred secretin infusion process includes the initial step of prepping an arm of the candidate child with an IV injection of saline. A test dose of 1 U of Secretin-Ferring is then administered to the child. Approximately one minute after, infusion, the child is examined for signs of allergic reaction including rash, increased heart rate, and increase of blood pressure. […] Subsequently, each child receives a 1 U/kg of body weight infusion of Secretin-Ferring approximately every 6 weeks for 9 months. It is to be understood that any commercially available form of secretin may be used. […]

Setting [4] is: of 37 children (pre-secretin 0).

For secretin, in the experiment on autistic children [1] (setting [4]), the “# Autistic Children w/Equivocal FC levels” value is reported as 2 and the “# Autistic Children w/normal FC levels” value was 34. Also, in the experiment with autistic children [1] (of 37 children (pre-secretin 37)), the “# Autistic Children w/Abnormal FC levels” value is listed as 1. In addition, the “effect on symptoms associated with Autism” value in experiment [2] was “ameliorating the symptoms associated with Autism”. For the same substance, the CARS component scores result in the experiment with autistic children [3] is given as “demonstrated improvement except for the fear component which increased”.

The values are drawn from patent publication US20120230970A1, “METHOD FOR TREATING PERVASIVE D[…]” (CUREMARK, LLC, priority 1999, published 2012).
